Structures can show the parent of a compound that is named as a salt.
Key:
[1] = biological target: T1, PDE V (cGMP-specific PDE) (Canis lupus familiaris, UniProt O77746); assay: Inhibitory activity on PDE V purified from canine tracheal smooth muscle (Test Example 1); format: biochemical; conditions: 1.0 μM [3H]cGMP substrate; for inhibition at 0.001 µM: 1 nM, read-out: PDE Inhibitory activity, PDE V, Percent inhibition
T1 construct: purified from canine tracheal smooth muscle; from tissue; host or cells: canine tracheal smooth muscle
Experimental: The inhibitory activity on PDE derived from canine tracheal smooth muscle
The measurement of the PDE I activity was carried out using 1.0 μM [^3 H]cAMP as a substrate in the presence of 0.4 mM CaCl2 and 20 units/ml calmodulin. The measurement of the PDE II activity was carried out using 1.0 μM [^3 H]cAMP as a substrate in the presence of 10 μM cGMP. The measurement of the PDE III, IV and V activity was carried out using, as a substrate, 1.0 μM [^3 H]cAMP, 1.0 μM [^3 H]cAMP and 1.0 μM [3H]cGMP, respectively. […] Respective reactions were carried out in a buffer having the following composition:
50 mM N,N-bis(2-hydroxyethyl)-2-aminoethanesulfonic acid (pH 7.2), 1 mM MgCl2, 0.1 mg/ml soybean trypsin inhibitor.
(§1) The reaction was started by addition of an enzyme and stopped by addition of hydrochloric acid after 10 to 30 minutes at 30° C. Thereafter, sodium hydroxide was added to neutralize and 5'-AMP or 5'-GMP was converted into adenosine or guanosine using 5'-nucleotidase. The reaction solution was subjected to DEAE-Sephadex A-25 column. [^3 H]Adenosine [^3 H]guanosine was eluted with distilled water and the radioactivity was measured with a liquid scintillation counter.

[2] = biological target: T2, PDE III (cAMP-specific PDE which is inhibited by cGMP) (Canis lupus familiaris, UniProt A0A8I3NYE0); assay: Inhibitory activity on PDE III purified from canine tracheal smooth muscle (Test Example 1); format: biochemical; conditions: 1.0 μM [3H]cAMP substrate, 10 μM rolipram added; for inhibition at 1 µM: read-out: PDE Inhibitory activity, PDE III, Percent inhibition
T2 construct: purified from canine tracheal smooth muscle; from tissue; host or cells: canine tracheal smooth muscle
T2 sequence (A0A8I3NYE0 1-1135): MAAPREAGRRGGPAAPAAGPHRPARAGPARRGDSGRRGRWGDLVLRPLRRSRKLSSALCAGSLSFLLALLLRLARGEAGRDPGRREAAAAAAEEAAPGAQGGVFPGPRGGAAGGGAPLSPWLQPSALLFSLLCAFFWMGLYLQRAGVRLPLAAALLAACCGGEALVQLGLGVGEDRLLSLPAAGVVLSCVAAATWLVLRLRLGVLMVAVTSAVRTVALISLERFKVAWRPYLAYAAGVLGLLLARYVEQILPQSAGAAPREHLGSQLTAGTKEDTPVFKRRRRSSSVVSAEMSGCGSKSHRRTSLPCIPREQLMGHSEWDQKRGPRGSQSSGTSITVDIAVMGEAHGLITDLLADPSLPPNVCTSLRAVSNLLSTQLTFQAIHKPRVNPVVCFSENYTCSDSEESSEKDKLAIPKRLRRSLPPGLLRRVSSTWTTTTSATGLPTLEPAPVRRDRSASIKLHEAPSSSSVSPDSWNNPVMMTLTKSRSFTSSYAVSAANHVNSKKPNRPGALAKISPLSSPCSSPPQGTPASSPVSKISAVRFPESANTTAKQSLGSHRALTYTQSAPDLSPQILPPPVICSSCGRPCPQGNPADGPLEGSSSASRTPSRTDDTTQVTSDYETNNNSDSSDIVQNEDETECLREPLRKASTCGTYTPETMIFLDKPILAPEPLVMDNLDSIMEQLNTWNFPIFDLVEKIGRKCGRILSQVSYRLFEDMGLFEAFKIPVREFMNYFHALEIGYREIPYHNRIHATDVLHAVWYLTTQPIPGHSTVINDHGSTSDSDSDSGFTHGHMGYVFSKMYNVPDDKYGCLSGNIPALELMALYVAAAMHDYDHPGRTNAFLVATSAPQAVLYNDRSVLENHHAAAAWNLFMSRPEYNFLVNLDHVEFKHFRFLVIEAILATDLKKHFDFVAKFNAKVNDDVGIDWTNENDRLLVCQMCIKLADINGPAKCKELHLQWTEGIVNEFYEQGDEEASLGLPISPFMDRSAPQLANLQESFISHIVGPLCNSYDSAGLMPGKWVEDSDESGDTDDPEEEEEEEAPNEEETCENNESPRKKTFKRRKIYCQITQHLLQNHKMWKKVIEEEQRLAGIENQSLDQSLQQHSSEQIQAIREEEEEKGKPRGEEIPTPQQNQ
Experimental: as §1

[3] = system: PDE IV (cAMP-specific PDE); assay: Inhibitory activity on PDE IV purified from canine tracheal smooth muscle (Test Example 1); format: biochemical; conditions: 1.0 μM [3H]cAMP substrate, 25 μM cGMP added
Experimental: as §1

[4] = system: PDE I (PDE which is activated by calmodulin); assay: Inhibitory activity on PDE I purified from canine tracheal smooth muscle (Test Example 1); format: biochemical; conditions: 10 μM; 1.0 μM [3H]cAMP substrate, CaCl2 and calmodulin
Experimental: as §1

[5] = system: PDE II (PDE which is activated by cGMP); assay: Inhibitory activity on PDE II purified from canine tracheal smooth muscle (Test Example 1); format: biochemical; conditions: 10 μM; 1.0 μM [3H]cAMP substrate, 10 μM cGMP
Experimental: as §1

[6] = Hypotensive effects in guinea pigs (Test Example 2); format: in vivo, guinea pig; conditions: anesthetized guinea pigs, in DMSO
Experimental: Hypotensive effects in guinea pigs.
After a guinea pig, anesthetized with pentobarbital, was fixed in the supine position, a cannula was inserted into trachea and guinea pig was artificially ventilated under the conditions of a tidal volume of […] and 60 breathes/min. The carotid artery and the jugular vein were cannulated for measuring arterial blood pressure and administering drugs, respectively. Drugs were dissolved in DMSO (50 μl) and administered intravenously using the above cannula.
The maximum percent values from the pre-drug level (100%) in mean blood pressure (mBP) were obtained.

SMILES | inhibition at 0.001 µM [1] | inhibition at 1 µM [2] | also measured
CCn1c(=O)[nH]c2cc3c(NCc4cccc(OC)c4)ncnc3cc21 [Compound 15, 3-ethyl-8-(3-methoxybenzylamino)-2,3-dihydro-1H-imidazo[4,5-g]quinazoline-2-one hydrochloride] | 67% | 50% | 
CCn1c(=O)[nH]c2cc3c(NCc4ccc(F)c(F)c4)ncnc3cc21 [Compound 20, 8-(3,4-difluorobenzylamino)-3-ethyl-2,3-dihydro-1H-imidazo[4,5-g]quinazoline-2-one hydrochloride] | 69% | 47% | 
CCn1c(=O)[nH]c2cc3c(NCC4CCCO4)ncnc3cc21 (stereo not drawn) [Compound 30, 3-ethyl-8-(2,3,4,5-tetrahydro-2-furylmethylamino)^- 2,3-dihydro-1H-imidazo[4,5-g]quinazoline-2-one hydrochloride] |  |  | IC50 [1]: 0.18 nM; IC50 [2]: 1100 nM; IC50 [3]: > 10000 nM; PDE Inhibitory activity, PDE I, Percent inhibition [4]: 58%; PDE Inhibitory activity, PDE II, Percent inhibition [5]: 61%
CCn1c(=S)[nH]c2cc3c(NCc4ccccc4)ncnc3cc21 [Compound 39, 8-benzylamino-3-ethyl-2,3-dihydro-1H-imidazo[4,5-g]quinazoline-2-thione] |  |  | maximum percent values from the pre-drug level (100%) in mean blood pressure (mBP) ([6]; 1 μg/kg i.v.): 100.20%; maximum percent values from the pre-drug level (100%) in mean blood pressure (mBP) ([6]; 3 μg/kg i.v.): 80.00%; maximum percent values from the pre-drug level (100%) in mean blood pressure (mBP) ([6]; 10 μg/kg i.v.): 72.30%; maximum percent values from the pre-drug level (100%) in mean blood pressure (mBP) ([6]; 30 μg/kg i.v.): 51.20%
CCCn1c(=S)[nH]c2cc3c(NCc4ccccc4)ncnc3cc21 [Compound 42, 8-benzylamino-3-(n-propyl)-2,3-dihydro-1H-imidazo[4,5-g]quinazoline-2-thione] | 94% | 27% | 
CCn1c(=S)[nH]c2cc3c(NCc4ccncc4)ncnc3cc21.Cl.Cl [Compound 47, 3-ethyl-8-(4-pyridylmethylamino)-2,3-dihydro-1H-imidazo[4,5-g]quinazoline-2-thione dihydrochloride] | 91% | 60% | PDE Inhibitory activity, PDE IV, Percent inhibition ([3]; 10 μM): 20%; PDE Inhibitory activity, PDE I, Percent inhibition [4]: 12%; PDE Inhibitory activity, PDE II, Percent inhibition [5]: 19%
CCn1c(=S)[nH]c2cc3c(NCc4cccc(OC)c4)ncnc3cc21 [Compound 51, 3-ethyl-8-(3-methoxybenzylamino)-2,3-dihydro-1H-imidazo[4,5-g]quinazoline-3-thione hydrochloride] | 97% | 48% | 
CCn1c(=S)[nH]c2cc3c(NCc4cccc(C(F)(F)F)c4)ncnc3cc21 [Compound 54, 3-ethyl-8-(3-trifluoromethylbenzylamino)-2,3-dihydro-1H-imidazo[4,5-g]quinazoline-2-thione hydrochloride] | 96% | 32% | 

— patent US5661147A, “Imidazoquinazoline derivatives” (Kyowa Hakko Kogyo Co., Ltd., priority 1993, dated 1997)
